This is an account of results in publication PMC6072501, “N-tert-Prenylation of the indole ring improves the cytotoxicity of a short antagonist G analogue against small cell lung cancer” (MedChemComm, 2017).

Data set [1] in a line: Peptide stability in mouse plasma (HPLC). The data set is classed as in vitro ADME. Particulars: neat mouse plasma, 37 °C; for stability in mouse plasma over 3 hour incubation: 400 µg/ml, 0 and 3 h, RP-HPLC C8, 220 nm, triplicate. The procedure: (§1) Plasma drug interaction affects the ability of the drug to distribute into tissues. To determine the extent of plasma binding to peptide 2, equilibrium dialysis (Cyprotex Ltd) was carried out. A 5 μM solution of peptide in PBS at pH 7.5 in 0.5% DMSO was mixed with neat human plasma in a total volume of 0.15 ml. After equilibrium at 37 °C, aliquots were taken from both sides of the membrane to determine the fraction of bound peptide. […] While in circulation, the peptide needs to be stable for a few hours to accumulate in tumours. It is commonly accepted that unmodified peptides are highly prone to protease digestion in plasma, leading to rapid degradation within a few minutes. Peptides 1 and 2 were subjected to stability testing in mouse plasma. The peptides dissolved in neat plasma (0.2 ml) were incubated at 37 °C. Aliquots (20 μl) were taken at 0 and 3 hour intervals in triplicate for analysis by HPLC. […] A plasma stability of 3 hours is considered as a sufficient time window to accumulate in tumour for efficacy studies.
4. Peptides stability in mouse plasma
Eppendorf® tubes were used for sample preparations. HPLC microvials were bought from Sigma-Aldrich®. HPLC analysis was performed using a C8 column (ACE 5 C8 – 250 X 4.6mm id) on a PerkinElmer Series 200 machine.
4.2. Peptides plasma stability
Peptides were added to neat mouse plasma at a concentration of 400 µg/ml and placed inside an incubator at 37 °C for 3 hours. Aliquots (20 µl) were taken at 0 and 3 hour periods. […] Then 80 µl of the supernatant was added to 0.1% TFA/H2O (120 µl) and transferred into a HPLC microvial to be analysed using the C8 column. […]
DMS79 cells were injected subcutaneously into ten CBA nude female mice (bred in house) at 5x10^6 cells/mouse in 0.1 ml of serum free RPMI-1640 medium containing 50% matrigel (Scientific Laboratory Supplies, Surrey, UK) as described in our recent publication (Reference 38). Tumours were measured and mice weighed 3 times a week throughout the study. Tumour volumes were calculated by multiplying the length, width and depth of tumors. […]

For the next data set, the system named is H345 and H69 cell lines. Particulars: cited from earlier work. The text has this: (§2) Several other related short chain SP antagonists have been investigated in the literature. […] Recently, Sarvi et al.[19] designed and synthesised a panel of eight substance P-peptide analogues ranging from a pentamer to 11-mer sequences. They compared their IC50 values, relative to SPG, using H345 and H69 cell lines. All an ...

The next data set concerns H345 xenografts. Particulars: subcutaneous injections, 25 mg kg^–1; cited from earlier work. As to the method: The relative tumour volume (RTV) as a percentage was calculated by dividing the tumour volumes on measured days by the tumour volume on day 0, before treatment. […] Excluding this single animal from the treated group, the tumour growth inhibition (TGI, Fig. 5) was calculated at day 7 as TGI (%) = (1 – T/C) × 100, where T indicates the mean tumour volume (mm^3) of the test group and C indicates the mean tumour volume of the vehicle-treated group. At day 7, the tumour volumes of pre ...

The subject of another data set is H69. Particulars: treatment for 72 hours; cited from earlier work. An excerpt:
Swiss Albino cell line 3T3 and two SCLC cell lines, DMS79 and H69, were selected for screening. 3T3 cells are fibroblast non-cancerous cells and were used to show the selectivity of the peptides for cancer treatment. The DMS79 cell line is a variant cell line model which is more resistant to chemotherapy as it originates from a patient with SCLC who had undergone treatment with cytoxan, vincristine, methotrexate and radiation therapy. On the other hand, H69 represents a chemo-naive SCLC cell line model. Cell viability was assessed by quantifying the reduction of resazurin dye to fluorescent re ...

The conditions of data set [2]: phase I clinical trial, cited from earlier work. An excerpt:
Recognising the anti-proliferative action together with other preclinical evidence supporting broad-spectrum neuropeptide antagonism prompted a phase I clinical trial with SPG,[11] the results of which were encouraging. […] This, combined with low potency of the peptide, necessitated prolonged dosing by infusion to maintain therapeutic concentrati ...

For data set [3], the system named is H69 small cell lung cancer cell line. The data set can be described thus: Cell viability assay (resazurin) on H69 cells. Type of data set: cell-based, human. Particulars: 48 h. An excerpt:
Swiss Albino cell line 3T3 and two SCLC cell lines, DMS79 and H69, were selected for screening. 3T3 cells are fibroblast non-cancerous cells and were used to show the selectivity of the peptides for cancer treatment. The DMS79 cell line is a variant cell line model which is more resistant to chemotherapy as it originates from a patient with SCLC who had undergone treatment with cytoxan, vincristine, methotrexate and radiation therapy. On the other hand, H69 represents a chemo-naive SCLC cell line model. Cell viability was assessed by quantifying the reduction of resazurin dye to fluorescent resorufin.[28]–[31] H69 and DMS79 cells were seeded in 96-well plates at a density of 10 000 cells per well and maintained in 10% FBS/RPMI-1640 for 48 hours at 37 °C in a humidified air atmosphere of 5% CO2 in the presence of various peptide concentrations. 3T3 cells were maintained under the same conditions but using 10% FBS/DMEM and a seeding density of 2500 cells per well. The dye was then applied for 5 hours before measuring fluorescence. […] The peptide thus had the potential to be tested in vivo subject to its biocompatibility with plasma.
Growth media, RPMI-1640 (with L-glutamine and NaHCO3) and DMEM, Dulbecco’s PBS (without calcium chloride and magnesium chloride), and Resazurin sodium salt were obtained from Sigma-Aldrich®. Human lung small cell carcinoma (H69 (ECACC 91091802)) and Mouse Swiss Albino embryo fibroblast (3T3 Swiss Albino (ECACC 85022108)) were from European Collection of Authenticated Cell Cultures (ECACC, Public Health England). […]
(§3) Complete medium containing resazurin was used as background. […] Then resazurin (20 µl) was added to each well and kept at 37 °C in a humidified air atmosphere of 5% CO2 for 5 hours before fluorescence readings were recorded. […]
(§4) Assessment of apoptosis was carried out through a fluorescent technique by using Acridine Orange (AO) and Ethidium Bromide (EB) double staining. […] AO emits green fluorescence while EB emits red/orange fluorescence when […]
(In general: The colour change of resazurin is a common sign of viable cells or microbes.)

Data set [4] deals with 3T3 Swiss Albino fibroblasts. Type of data set: cell-based, mouse. Particulars: 48 h.
From the text: (§5) Swiss Albino cell line 3T3 and two SCLC cell lines, DMS79 and H69, were selected for screening. 3T3 cells are fibroblast non-cancerous cells and were used to show the selectivity of the peptides for cancer treatment. The DMS79 cell line is a variant cell line model which is more resistant to chemotherapy as it originates from a patient with SCLC who had undergone treatment with cytoxan, vincristine, methotrexate and radiation therapy. On the other hand, H69 represents a chemo-naive SCLC cell line model. Cell viability was assessed by quantifying the reduction of resazurin dye to fluorescent resorufin.[28]–[31] H69 and DMS79 cells were seeded in 96-well plates at a density of 10 000 cells per well and maintained in 10% FBS/RPMI-1640 for 48 hours at 37 °C in a humidified air atmosphere of 5% CO2 in the presence of various peptide concentrations. […] The dye was then applied for 5 hours before measuring fluorescence. […]
as §3, §4

Data set [5] deals with DMS79 small cell lung cancer cell line. Put plainly: Cell viability assay (resazurin) on DMS79 cells. Particulars: 48 h. Type of data set: cell-based, human.
From the text: as §5, §3, §4

For another data set, the system named is NCI-H69 cells. Particulars: at 50 μM, serum-free media; cited from earlier work.
From the text: as §2

Data set [6] is described as follows: Plasma binding by equilibrium dialysis (Cyprotex Ltd). The data set is classed as in vitro ADME. Particulars: neat human plasma. As to the method:
as §1
In general terms: Equilibrium dialysis compares concentrations on both sides of a semipermeable membrane.

Data set [7] is described as follows: Aqueous solubility (observation on dosing solutions). Type of data set: physicochemical. Particulars: observation while preparing dosing solutions; higher concentration gave significant precipitation.
Setting [8] is: up to the concentration of 30 μM, resazurin.

“Also recorded” adds a separate entry of the source. *1 amine or outer side, *2 acyl side, *3 side chain or, on linkers, in order; H or OH if unused. Where a SMILES comes first, the peptide text is derived from it. Where no end group is shown, it is not given here. [ ]: non-standard residue; d: D form. X1 = C=CC(C)(C)n1cc(C[C@@H](N[*:1])C(=O)[*:2])c2ccccc21; NMeF = CN[C@@H](Cc1ccccc1)C(=O)O; dNMeF = CN[C@H](Cc1ccccc1)C(=O)O

Regarding `CN[C@H](Cc1ccccc1)C(=O)N[C@H](Cc1c[nH]c2ccccc12)C(=O)N[C@@H](Cc1ccccc1)C(=O)N[C@H](Cc1c[nH]c2ccccc12)C(=O)N[C@@H](CC(C)C)C(N)=O` [peptide 1] (H-[dNMeF][dW]F[dW]L-NH2), the “stability in mouse plasma over 3 hour incubation” value in [1] is recorded as “remained largely intact”.
For [dR]PKP[dW]Q[dW]F[dW][dL]L [11-mer], the “potency relative to SPG (IC50 values)” value in the data set on H345 and H69 cell lines is recorded as 3 to 4 fold. Also, the tumour growth result with H345 xenografts was “significant reduction in tumour growth”. In the data set with H69, the IC50 was 4.96 ± 0.64 µM.
As to `CSCC[C@H](NC(=O)[C@H](CC(C)C)NC(=O)[C@@H](Cc1c[nH]c2ccccc12)NC(=O)[C@H](Cc1ccccc1)N(C)C(=O)[C@@H](Cc1c[nH]c2ccccc12)NC(=O)[C@@H](N)CCCNC(=N)N)C(N)=O` [SPG, Arg–D-Trp–NMePhe–D-Trp–Leu–Met-NH2] (H-R[dW][NMeF][dW]LM-NH2), the elimination from plasma entry in data set [2] (resulting in poor systemic bioavailability) is “quickly eliminated from plasma”. Moreover, the toxicity result in data set [2] is listed as “minimal toxicity”. Besides, the IC50 in data set [3], in data set [4] and in data set [5] was above 30 µM each time. In [3] (setting [8]), the “inhibitory effect (cytotoxicity profile), H69” value is reported as “no inhibitory effect”. Also, the “inhibitory effect (cytotoxicity profile), DMS79” value in data set [5] (setting [8]) is given as “no inhibitory effect”.
Take “D-MePhe–D-Trp–Phe–D-Trp–Leu-MPA [NY3521]”: the “inhibition of growth of NCI-H69 cells” value in the data set on NCI-H69 cells was “completely inhibited”.
`C=CC(C)(C)n1cc(C[C@@H](NC(=O)[C@H](Cc2ccccc2)NC(=O)[C@@H](Cc2c[nH]c3ccccc23)NC(=O)[C@@H](Cc2ccccc2)NC)C(=O)N[C@@H](CC(C)C)C(N)=O)c2ccccc21` [peptide 2, NMeDPhe-DTrp-Phe-DTrp(N-tert-prenyl)-Leu-NH2] (H-[dNMeF][dW]F[X1]L-NH2) displayed a fraction unbound at 5 µM in data set [6] (5 μM peptide in PBS pH 7.5 with 0.5% DMSO, total volume 0.15 ml, 37 °C, mean) of 0.728 ± 0.124. Moreover, the peptide unbound in data set [6] (5 μM, PBS pH 7.5, 37 °C) worked out at 73%. The aqueous solubility result in data set [7] is recorded as “limited aqueous solubility; also recorded: lower aqueous solubility than SPG”. In addition, the “cytotoxicity enhancement of 2 over pentamer 1 (comparison of IC50 values)” value in [3] (depending on the cell line (DMS79 and H69)) fell in the range of 5 to 10 fold. Further, the “stability in mouse plasma over 3 hour incubation” value in data set [1] is given as “remained largely intact; also recorded: a small percentage of degradation was noted”. Further, in data set [1] (HPLC), the “time of resisting degradation by plasma” value is reported as “at least 3 hours”.
As to “D-MePhe–D-Trp–Phe–D-Trp–LeuΨ(CH2NH)Leu-NH2 [NY3460]”, in the data set on NCI-H69 cells, the “inhibition of growth of NCI-H69 cells” value is “completely inhibited”.

The IC50 is the concentration at which inhibition is half-maximal. As a reminder, the fraction unbound is free concentration divided by total concentration. A lower fraction unbound goes with little free substance.
